From patent US5162320A, “1,4-bis(alkylamino)-2,3-diaza-anthracene-9,10-diones” (Boehringer Biochemia Robin S.p.A., priority 1989, dated 1992)
Where two headings read alike, the source gives them in different places.

How the values were obtained:
[1] = test system: human melanoma xenographt; experiment: M.T.T. assay in vitro, human melanoma; format: cell-based
Experimental: (§1) The antitumor activity of compounds of the present invention was evaluated by "in vitro" M.T.T. assay (T. Mosmann, J. Immunol. Meth. 65 : 55-63, 1983) on human tumor cell lines. M.T.T. assay was chosen according to N.C.I. screening program for new anticancer drugs (Ad hoc review committee proceedings for N.C.I. "in vitro"--"in vivo" Disease oriented Screening project. N.I.H., Bethesda, Md. Dec.8-9, 1986).

[2] = test system: human cervix epithelioid carcinoma cell line; experiment: M.T.T. assay in vitro, human cervix epithelioid carcinoma; format: cell-based
Experimental: as §1
Against the same human cervix epithelioid carcinoma cell line the compounds (1) and (2) show ID50 of 1×10^-9 M and 2×10^-10 M, respectively.

[3] = test system: human colon adenocarcinoma; experiment: M.T.T. assay in vitro, human colon adenocarcinoma; format: cell-based; details: human colon adenocarcinoma xenographt, read-out: ID50 (the source's name)
Experimental: as §1

[4] = human, in vivo; cited from earlier work
[5] = intraperitoneal, non-tumor bearing animals; cited from earlier work
[6] = human melanoma xenographt, M.T.T. assay, read-out: ID50 (the source's name)
[7] = human cervix epithelioid carcinoma, in vitro, read-out: ID50 (the source's name)
[8] = human cervix epithelioid carcinoma

Row | SMILES | IC50 [1, 6] | IC50 [2, 7] | IC50 [3] | cardiotoxicity [4] | further results
1 | OCCCNc1nnc(NCCCO)c2cc3ccccc3cc12 [1,4-bis[N-(3-hydroxypropyl)amino]-2,3-diaza-anthracene] | 500000 nM |  |  |  | 
2 | CN(C)CCNc1nnc(NCCN(C)C)c2c1C(=O)c1ccccc1C2=O [Compound 1, 1,4-bis[N-(2-dimethylaminoethyl)amino]-2,3-diaza-anthracene-9,10-dione] | 1 nM | 1 nM | 10 nM |  | 
3 | CN(C)CCNc1nnc(N)c2c1C(=O)c1ccccc1C2=O [Compound 2, 1-[N-(2-dimethylaminoethyl)amino]-4-amino-2,3-diaza-anthracene9,10-dione] | 0.1 nM | 0.2 nM | 1 nM |  | 
4 | O=C1c2ccccc2C(=O)c2c(NCCNCCO)ccc(NCCNCCO)c21 [ametantrone, 1,4-bis[(2-(2-hydroxyethylamino)ethyl)amino]anthracene-9,10-dione] |  |  |  | some cardiotoxicity | IC50 ([2]; Homo sapiens, read-out: ID50): 50000 nM; IC50 ([1]; Homo sapiens, read-out: ID50): 20000 nM; delayed lethality [5]: not observed
5 | COc1cccc2c1C(=O)c1c(O)c3c(c(O)c1C2=O)C[C@@](O)(C(=O)CO)C[C@@H]3O[C@H]1C[C@H](N)[C@H](O)[C@H](C)O1 [doxorubicin] |  |  |  | severe dose-related cardiotoxicity | toxic side effects [4]: nausea, vomiting and alopecia
6 | O=C1c2c(O)ccc(O)c2C(=O)c2c(NCCNCCO)ccc(NCCNCCO)c21 [mitoxantrone, 5,8-dihydroxy-1,4-bis[(2-(2-hydroxyethylamino)ethyl)amino]anthracene-9,10-dione] | 1 nM | 5 nM | 100 nM | some clinical cardiotoxicity | major hematological toxicities [4]: leukopenia, neutropenia and bone marrow aplasia; toxic side effects [4]: by far lower than those resulting from doxorubicin; delayed lethality [5]: a delayed lethality

Continued, in another order:

Row | IC50 [1, 6] | IC50 [2, 7] | IC50 [3] | SMILES | cardiotoxicity [4] | further results
7 | 2 nM |  |  | O=C1c2ccccc2C(=O)c2c(NCCCO)nnc(NCCCO)c21 [Compound 3, 1,4-bis[N-(3-hydroxypropyl)amino]-2,3-diaza-anthracene-9,10-dione] |  | 
8 | 1 nM |  |  | Nc1nnc(NCCCO)c2c1C(=O)c1ccccc1C2=O [Compound 4, 1-[N-(3-hydroxypropyl)amino]-4-amino-2,3-diaza-anthracene-9,10-dione] |  | 
9 |  | 3 nM |  | Nc1nnc(NCCNCCO)c2c1C(=O)c1ccccc1C2=O [Compound 5, 1-[N-(2-(2-hydroxyethylamino)ethyl)amino]-4-amino-2,3-diaza-anthracene-9,10-dione] |  | activity compared with ametantrone [2, 8]: definitely more active than ametantrone; activity compared with mitoxantrone [2, 8]: as active as mitoxantrone
